The source of these data is publication PMC3205184, “Competitive binding at a nicotinic receptor transmembrane site of two α7-selective positive allosteric modulators with differing effects on agonist-evoked desensitization” (Neuropharmacology, 2011).

This assay has as its target T1, α7 nicotinic acetylcholine receptor (α7 nAChR) (Rattus norvegicus, UniProt Q05941).
T1 construct: gene Chrna7
The experiment in a line: two-electrode voltage clamp in Xenopus oocytes; potentiation of EC20 acetylcholine responses, with site-directed mutants. The format is cell-based.

T1 sequence (Q05941 23-502): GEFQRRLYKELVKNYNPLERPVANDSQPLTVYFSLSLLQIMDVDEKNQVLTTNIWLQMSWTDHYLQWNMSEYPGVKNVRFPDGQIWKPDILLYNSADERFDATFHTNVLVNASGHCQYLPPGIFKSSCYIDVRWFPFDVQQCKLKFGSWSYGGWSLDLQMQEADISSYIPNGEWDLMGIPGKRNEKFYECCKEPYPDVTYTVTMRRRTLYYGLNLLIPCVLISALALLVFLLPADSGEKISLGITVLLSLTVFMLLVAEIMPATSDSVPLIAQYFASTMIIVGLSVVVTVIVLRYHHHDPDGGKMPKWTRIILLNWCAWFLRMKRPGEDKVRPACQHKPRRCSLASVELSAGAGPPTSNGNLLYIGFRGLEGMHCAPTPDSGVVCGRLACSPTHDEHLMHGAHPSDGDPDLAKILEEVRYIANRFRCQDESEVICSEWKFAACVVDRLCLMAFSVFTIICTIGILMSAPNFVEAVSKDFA

In general, EC50 refers to the concentration that produces a half-maximal response. As to `O=C(Nc1cc(Cl)ccc1O)Nc1cc(C(F)(F)F)ccc1Cl` [NS1738], the EC50 came to 6.7 ± 1.8 µM.
